Results as given in PubChem BioAssay AID2060509 (Molecular Pharmacology Branch, DTP, NCI, 2025).
Several values for one entry are separate records, joined by “and”; a condition that tells them apart may be missing. Equal entries are not always repeated.

Test system: 485176-168-R4-J1-PDC spheroids with HUVEC/MSC, viability
Assay: Anticancer human tumor 485176-168-R4-J1-PDC patient-derived pancreatic adenocarcinoma cell line growth inhibition [GQUAD]
Conditions: for viability, T/C: stronger effect = lower value
Text: DNA G-quadruplex Stabilizer Agents in Combinations in Complex Spheroids
A high-throughput screen of multi-cell type tumor spheroids was designed to identify active combinations of DNA G-quadruplex stabilizer agents and targeted small molecules. Complex spheroids include a stromal component modeled by human endothelial cells (HUVEC) and fibroblasts modeled by human mesenchymal stem cells (MSCs). The concentration ranges selected for each drug and investigational agent were based upon clinically achievable concentrations if the clinical Cmax of the agent was known.
Compounds. The drugs and investigational agents: pidnarulex (CX-5461; NSC782164), APTO-253 (NSC789042), BRACO-19 (NSC847499), peposertib (NSC802822), ceralasertib (NSC780249), elimusertib (NSC800525), camonsertib (NSC841442), AZD-1390 (NSC803789), olaparib (NSC753686), talazoparib (NSC767125), ART-558 (NSC835418), sotorasib (NSC818433), MRTX-1133 (NSC836407), SN-38 (NSC673596), topotecan (NSC609699), etoposide (NSC141540), doxorubicin (NSC123127), gemcitabine (NSC613327), 5-fluorouracil (NSC19893), paclitaxel (NSC125973), vemurafenib (NSC761431), panobinostat (NSC761190), R-306465 (JNJ-16241199; NSC773264), adavosertib (NSC754352), TP-3654 (NSC805149), carboplatin (NSC241240), KSQ-4279 (NSC840948), and staurosporine (NSC755774) were obtained from the National Cancer Institute (NCI) Developmental Therapeutics Program Chemical Repository (34). The FDA-approved anticancer drug set is available from the NCI Developmental Therapeutics Program. […] The stock solutions were prepared in dimethyl sulfoxide (DMSO, Sigma-Aldrich, St. Louis, MO, cat. D2650) at 800-fold the tested concentration and stored at -70 degrees C prior to their use. All drugs and investigational agents were tested over a range starting from a high concentration at or near the clinical Cmax and decreasing in half-log increments. If the clinical Cmax for an agent had not been determined, the highest concentration tested was 10 microM.
2.3 Cell Culture. All cells were maintained in an incubator at 37 degrees C and 5% CO2 with 95% humidity. The PDC lines were cultured according to standard operating procedures established by the NCI PDMR. All PDCs were thawed and cultured in Matrigel-coated flasks prepared with a working solution of 1X Ham's F-12 nutrient mix, without supplementation (Invitrogen, cat. 11765054), 100 U/mL penicillin-streptomycin (Invitrogen, cat. 15140122), and 2.5% Matrigel (Corning Inc., cat. 354248) for the first three passages. The 857933-349-R-J2-PDC line was cultured in 6C/Colon 1B media, which includes advanced DMEM/F-12 (Thermo Fisher Scientific, cat. 12634028), 10 mM HEPES (Thermo Fisher Scientific, cat. 15630080), 1X GlutaMAX supplement (Thermo Fisher Scientific, cat. 35050061), 0.1 mg/mL primocin (InvivoGen, cat. ant-pm-2), 10% defined fetal bovine serum, heat inactivated (HyClone Laboratories Inc., cat. SH30070.03HI), 50% L-WRN conditioned media (ATCC, cat. CRL-3276), 1.25 mM N-Acetyl-L-cysteine (Sigma-Aldrich, cat. A9165), 10 mM nicotinamide (Sigma-Aldrich, cat. N0636), 1X B-27 supplement (Thermo Fisher Scientific, cat. 17504044), 1X N-2 supplement (Thermo Fisher Scientific, cat. 17502048), 10 microM Y-27632 dihydrochloride (Tocris Bioscience, cat. 1254), and 50 ng/mL human EGF recombinant protein (Thermo Fisher Scientific, cat. PHG0311). The 485176-168-R4-J1-PDC line was cultured in Panc media, which includes all 6C/Colon 1B media components plus 100 ng/mL human FGF-10 (Thermo Fisher Scientific, cat. 100-26), 500 nM SB-431542 (Selleckchem, cat. S1067), and gastrin (Tocris, cat. 3006).
[…]
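Note: spheroids exposed to compounds for seven days before readout.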
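Throughout, for viability, T/C: percent viability relative to DMSO vehicle control wells as 100%.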

Structure (SMILES): CC1COCCN1c1cc(-c2ccnn2C)c2ccnc(-c3ccn[nH]3)c2n1 (centres undefined) + Cc1cnc(CNC(=O)c2c(=O)c3ccc(N4CCCN(C)CC4)nc3n3c2sc2ccccc23)cn1
- IC50 (curve of first compound, second compound 0.0316 µM): < 31.6 nM
- IC50 (curve of first compound, second compound 0.1 µM): < 31.6 nM
- IC50 (curve of first compound, second compound 0.316 µM): < 31.6 nM
- IC50 (curve of first compound, second compound 1 µM): < 31.6 nM
- IC50 (curve of first compound, second compound 3.16 µM): < 31.6 nM
- IC50 (curve of first compound, second compound 10 µM): < 31.6 nM
- viability, T/C (second compound 0.0316 µM, first compound 0.0316 µM): 40.6%
- viability, T/C (second compound 0.0316 µM, first compound 0.1 µM): 15.9%
- viability, T/C (second compound 0.0316 µM, first compound 0.316 µM): 12.9%
- viability, T/C (second compound 0.0316 µM, first compound 1 µM): 8.3%
- viability, T/C (second compound 0.0316 µM, first compound 3.16 µM): 10.7%
- viability, T/C (second compound 0.0316 µM, first compound 10 µM): 11.9%
- viability, T/C (second compound 0.1 µM, first compound 0.0316 µM): 22.2%
- viability, T/C (second compound 0.1 µM, first compound 0.1 µM): 12.2%
- viability, T/C (second compound 0.1 µM, first compound 0.316 µM): 7.9%
- viability, T/C (second compound 0.1 µM, first compound 1 µM): 11.2%
- viability, T/C (second compound 0.1 µM, first compound 3.16 µM): 10.8%
- viability, T/C (second compound 0.1 µM, first compound 10 µM): 11.7%
- viability, T/C (second compound 0.316 µM, first compound 0.0316 µM): 18.2%
- viability, T/C (second compound 0.316 µM, first compound 0.1 µM): 9.35%
- viability, T/C (second compound 0.316 µM, first compound 0.316 µM): 8.47%
- viability, T/C (second compound 0.316 µM, first compound 1 µM): 7.9%
- viability, T/C (second compound 0.316 µM, first compound 3.16 µM): 10.6%
- viability, T/C (second compound 0.316 µM, first compound 10 µM): 10.4%
- viability, T/C (second compound 1 µM, first compound 0.0316 µM): 12.6%
- viability, T/C (second compound 1 µM, first compound 0.1 µM): 9.48%
- viability, T/C (second compound 1 µM, first compound 0.316 µM): 9.86%
- viability, T/C (second compound 1 µM, first compound 1 µM): 8.6%
- viability, T/C (second compound 1 µM, first compound 3.16 µM): 11.5%
- viability, T/C (second compound 1 µM, first compound 10 µM): 10.6%
- viability, T/C (second compound 3.16 µM, first compound 0.0316 µM): 15%
- viability, T/C (second compound 3.16 µM, first compound 0.1 µM): 11.8%
- viability, T/C (second compound 3.16 µM, first compound 0.316 µM): 10.1%
- viability, T/C (second compound 3.16 µM, first compound 1 µM): 10.4%
- viability, T/C (second compound 3.16 µM, first compound 3.16 µM): 9.56%
- viability, T/C (second compound 3.16 µM, first compound 10 µM): 9.96%
- viability, T/C (second compound 10 µM, first compound 0.0316 µM): 16%
- viability, T/C (second compound 10 µM, first compound 0.1 µM): 11%
- viability, T/C (second compound 10 µM, first compound 0.316 µM): 9.84%
- viability, T/C (second compound 10 µM, first compound 1 µM): 9.05%
- viability, T/C (second compound 10 µM, first compound 3.16 µM): 9.12%
- viability, T/C (second compound 10 µM, first compound 10 µM): 10.4%

Structure (SMILES): CC(C)(O)C1CCC(Nc2ccc3ncc(-c4cccc(C(F)(F)F)c4)n3n2)CC1 (centres undefined)
- viability, T/C (compound 0.0316 µM): 95.2% and 95.5% and 94.6%
- viability, T/C (compound 0.1 µM): 110% and 90.6% and 87.2%
- viability, T/C (compound 0.316 µM): 83.9% and 93.9% and 92.1%
- viability, T/C (compound 1 µM): 84.3% and 91.6% and 77.9%
- viability, T/C (compound 3.16 µM): 53.8% and 62.9% and 60.7%
- viability, T/C (compound 10 µM): 57.8% and 57.9% and 56.4%
- IC50 (curve of compound): > 10000 nM
